Literature values in patent US9782413B2, “Composition for treatment of essential thrombocythemia” (AOP ORPHAN PHARMACEUTICALS AG, priority 2010, dated 2017).

Columns and labels:
[1] = test system: phosphodiesterase (PDE) 3
[2] = after anagrelide administration

Row | phosphodiesterase (PDE) 3 inhibitory activity [1] | delay of peak plasma level compared to the parent drug [2] | Compound | platelet reduction in vivo (platelets)
1 | lacks these activities |  | NC1=Nc2ccc(Cl)c(Cl)c2CN1 [RL 603, 2-amino-5,6-dichloro-3,4-dihydroquinazolone] | lacks these activities
2 | considerably more potent than anagrelide | about 45 mm | O=C1NC2=Nc3ccc(Cl)c(Cl)c3CN2C1O (stereo not shown) [3-hydroxyanagrelide] | 
